Results as given in ChEMBL document CHEMBL4196070, “Development of Piperazinediones as dual inhibitor for treatment of Alzheimer's disease” (Eur J Med Chem, 2018).
The source made the active and inactive calls. The rule behind the calls is not given here.

Legend:
[1] = Selectivity index, ratio of IC50 for electric eel AChE to IC50 for equine serum BuChE
[2] = Antioxidant activity assessed as DPPH radical scavenging activity at 10 uM after 25 mins; type: functional
[3] = Antioxidant activity assessed as DPPH radical scavenging activity at 20 uM after 25 mins; type: functional
[4] = target: Acetylcholinesterase (Electrophorus electricus) (UniProt O42275); test: Ratio of Vmax to Km for substrate for inhibition of electric eel AChE at 10 nM preincubated for 30 mins followed acetylthiocholine iodide substrate addition by Lineweaver-Burk plot analysis
[5] = target: Acetylcholinesterase (Electrophorus electricus) (UniProt O42275); test: Ratio of Vmax to Km for substrate for inhibition of electric eel AChE at 20 nM preincubated for 30 mins followed acetylthiocholine iodide substrate addition by Lineweaver-Burk plot analysis
[6] = target: Acetylcholinesterase (Electrophorus electricus) (UniProt O42275); test: Ratio of Vmax to Km for substrate for inhibition of electric eel AChE at 40 nM preincubated for 30 mins followed acetylthiocholine iodide substrate addition by Lineweaver-Burk plot analysis
[7] = Metal chelating activity assessed as compound-Cu2+ complex formation at 600 uM after 8 hrs by UV spectroscopic analysis
Mus musculus [8] = test: Reversal of scopolamine-induced amnesic effect in Swiss albino mouse assessed as reversal of lowered spontaneous alteration at 5 mg/kg, ip administered once daily for 7 days prior to 4 hrs of training followed by scopolamine challenge and measured after 5 mins by Y-maze test; type: functional, organism-based
Mus musculus [9] = test: Anxiolytic activity in Swiss albino mouse assessed as increase in time spent in novel arm at 20 mg/kg, ip administered once daily for 7 days prior to 4 hrs of training followed by scopolamine challenge and measured after 5 mins by Y-maze test; type: functional, organism-based
Mus musculus [10] = test: Reversal of scopolamine-induced neophobia in Swiss albino mouse assessed as increase in number of novel arm entries at 5 mg/kg, ip administered once daily for 7 days prior to 4 hrs of training followed by scopolamine challenge and measured after 5 mins by Y-maze test; type: functional, organism-based
Mus musculus [11] = test: Reversal of scopolamine-induced anxiety in Swiss albino mouse assessed as increase in number of novel arm entries at 5 mg/kg, ip administered once daily for 7 days prior to 4 hrs of training followed by scopolamine challenge and measured after 5 mins by Y-maze test; type: functional, organism-based
Mus musculus [12] = test: Reversal of scopolamine-induced neophobia in Swiss albino mouse assessed as increase in number of novel arm entries at 10 mg/kg, ip administered once daily for 7 days prior to 4 hrs of training followed by scopolamine challenge and measured after 5 mins by Y-maze test; type: functional, organism-based
Mus musculus [13] = test: Reversal of scopolamine-induced anxiety in Swiss albino mouse assessed as increase in number of novel arm entries at 10 mg/kg, ip administered once daily for 7 days prior to 4 hrs of training followed by scopolamine challenge and measured after 5 mins by Y-maze test; type: functional, organism-based
Mus musculus [14] = test: Reversal of scopolamine-induced memory deficit in ip dosed Swiss albino mouse assessed as increase in transfer latency time of retention trial administered once daily for 7 days followed by scopolamine challenge and subsequent training session for 5 mins by passive avoidance test; type: functional, organism-based
Mus musculus [15] = test: Restoration of brain mitochondrial membrane potential in scopolamine-induced Swiss albino mouse amnesia model at 5 mg/kg, ip administered once daily for 7 days followed by scopolamine challenge by tetramethylrhodamine dye-based fluorescence assay; type: functional, organism-based
Mus musculus [16] = test: Antialzheimer activity in Swiss albino mouse assessed as reversal of scopolamine-induced AChE level in brain at 5 mg/kg, ip administered once daily for 7 days followed by scopalamine challenge using acetylthiocholine iodide as substrate by Ellman's method; type: functional, organism-based
Mus musculus [17] = test: Neuroprotective activity in scopolamine-induced amnesia Swiss albino mouse model assessed as decrease in neurodegenerative lesions in brain at 10 mg/kg, ip administered once daily for 7 days followed by scopolamine challenge by histopathological method; type: functional, organism-based
Mus musculus [18] = test: Reversal of scopolamine-induced amnesic effect in Swiss albino mouse assessed as reversal of lowered spontaneous alteration at 10 mg/kg, ip administered once daily for 7 days prior to 4 hrs of training followed by scopolamine challenge and measured after 5 mins by Y-maze test; type: functional, organism-based
Mus musculus [19] = test: Reversal of scopolamine-induced neophobia in Swiss albino mouse assessed as increase in number of novel arm entries at 5 to 10 mg/kg, ip administered once daily for 7 days prior to 4 hrs of training followed by scopolamine challenge and measured after 5 mins by Y-maze test; type: functional, organism-based
Mus musculus [20] = test: Reversal of scopolamine-induced anxiety in Swiss albino mouse assessed as increase in number of novel arm entries at 5 to 10 mg/kg, ip administered once daily for 7 days prior to 4 hrs of training followed by scopolamine challenge and measured after 5 mins by Y-maze test; type: functional, organism-based
Mus musculus [21] = test: Antialzheimer activity in Swiss albino mouse assessed as reversal of scopolamine-induced AChE level in brain at 10 mg/kg, ip administered once daily for 7 days followed by scopalamine challenge using acetylthiocholine iodide as substrate by Ellman's method; type: functional, organism-based
Mus musculus [22] = test: Restoration of brain catalase level in scopolamine-induced Swiss albino mouse amnesia model at 10 mg/kg, ip administered once daily for 7 days followed by scopolamine challenge by spectrophotometric analysis; type: functional, organism-based
Mus musculus [23] = test: Reversal of scopolamine-induced memory deficit in Swiss albino mouse assessed as increase in transfer latency time of retention trial at 10 mg/kg, ip administered once daily for 7 days followed by scopolamine challenge and subsequent training session for 5 mins by passive avoidance test; type: functional, organism-based

Acetylcholinesterase (Electrophorus electricus), sequence (O42275 24-633 limits assumed): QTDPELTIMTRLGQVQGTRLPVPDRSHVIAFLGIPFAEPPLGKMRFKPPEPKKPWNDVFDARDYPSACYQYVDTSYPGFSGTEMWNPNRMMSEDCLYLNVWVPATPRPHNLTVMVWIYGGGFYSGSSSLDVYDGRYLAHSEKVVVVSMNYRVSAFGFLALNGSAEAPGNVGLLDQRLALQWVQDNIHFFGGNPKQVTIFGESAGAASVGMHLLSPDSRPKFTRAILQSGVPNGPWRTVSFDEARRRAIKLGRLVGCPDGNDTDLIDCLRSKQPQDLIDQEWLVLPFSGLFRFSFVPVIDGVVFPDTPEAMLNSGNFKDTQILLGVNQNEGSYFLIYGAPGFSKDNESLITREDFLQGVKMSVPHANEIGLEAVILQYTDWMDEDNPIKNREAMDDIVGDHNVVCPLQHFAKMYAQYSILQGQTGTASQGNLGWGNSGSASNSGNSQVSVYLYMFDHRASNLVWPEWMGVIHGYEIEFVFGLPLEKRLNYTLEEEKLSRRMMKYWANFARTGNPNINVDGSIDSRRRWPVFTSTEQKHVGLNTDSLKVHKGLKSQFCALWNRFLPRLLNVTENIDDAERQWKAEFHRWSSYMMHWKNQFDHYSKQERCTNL

SMILES | Ratio IC50 [1] | Activity [2] [%] | Activity [3] [%] | other results
O=C1C(c2ccccc2)N(S(=O)(=O)c2cccc(Br)c2)C(=O)C(c2ccccc2)N1S(=O)(=O)c1cccc(Br)c1 (stereo unspecified) | 0.4 | 46.2 | 63.3 | –
O=C1C(c2ccccc2)N(S(=O)(=O)c2ccc(Cl)cc2)C(=O)C(c2ccccc2)N1S(=O)(=O)c1ccc(Cl)cc1 (stereo unspecified) | 0.2 | 52.9 | 60.3 | Vmax/Km [4]: 0.104 U/min/nM; Vmax/Km [5]: 0.0696 U/min/nM; Vmax/Km [6]: 0.00052 U/min/nM; Activity [7]: Active; Activity (Mus musculus [8]): Active; Activity (Mus musculus [9]): Active; Activity (Mus musculus [10]): Active; Activity (Mus musculus [11]): Active; Activity (Mus musculus [12]): inactive; Activity (Mus musculus [13]): inactive; Activity (Mus musculus [14]): Dose-dependent effect; Activity (Mus musculus [15]): Active; Activity (Mus musculus [16]): Active; Activity (Mus musculus [17]): Active
O=C1C(Cc2ccccc2)N(S(=O)(=O)c2ccc(O)cc2)C(=O)C(Cc2ccccc2)N1S(=O)(=O)c1ccc(O)cc1 (stereo unspecified) | 0.3 | 58.1 | 68.6 | –
CCCCS(=O)(=O)N1CC(=O)N(S(=O)(=O)CCCC)CC1=O | – | 65.7 | 56.7 | –
O=C1CN(S(=O)(=O)c2ccc(F)cc2)C(=O)CN1S(=O)(=O)c1ccc(F)cc1 | 0.4 | 37.1 | 50.5 | –
Cc1cccc(S(=O)(=O)N2C(=O)C(c3ccccc3)N(S(=O)(=O)c3cccc(C)c3)C(=O)C2c2ccccc2)c1 (stereo unspecified) | < 0.4 | 38.6 | 55.2 | –
COc1ccc(S(=O)(=O)N2CC(=O)N(S(=O)(=O)c3ccc(OC)cc3)CC2=O)cc1 | < 0.5 | 48.6 | 57.6 | –
O=C1C(Cc2ccccc2)N(S(=O)(=O)c2ccc(Cl)cc2)C(=O)C(Cc2ccccc2)N1S(=O)(=O)c1ccc(Cl)cc1 (stereo unspecified) | 0.2 | 48.1 | 60 | Activity (Mus musculus [18]): Active; Activity (Mus musculus [19]): Active; Activity (Mus musculus [9]): Active; Activity (Mus musculus [20]): Active; Activity (Mus musculus [15]): Active; Activity (Mus musculus [21]): Active; Activity (Mus musculus [22]): Active; Activity (Mus musculus [17]): Active
O=C1C(Cc2ccccc2)N(S(=O)(=O)c2cccc(Br)c2)C(=O)C(Cc2ccccc2)N1S(=O)(=O)c1cccc(Br)c1 (stereo unspecified) | 0.4 | 46.7 | 64.3 | –
COc1cc2c(cc1OC)C(=O)C(CC1CCN(Cc3ccccc3)CC1)C2 (stereo unspecified) | – | 60.1 | 74.6 | Activity (Mus musculus [23]): Active
Nc1ccc(S(=O)(=O)N2CC(=O)N(S(=O)(=O)c3ccc(N)cc3)CC2=O)cc1 | < 0.4 | 55.7 | 62.9 | –
O=C1CN(S(=O)(=O)c2ccccc2)C(=O)CN1S(=O)(=O)c1ccccc1 | – | 39.5 | 52.4 | –
O=C1CN(S(=O)(=O)c2ccc(Cl)cc2)C(=O)CN1S(=O)(=O)c1ccc(Cl)cc1 | 0.3 | 36.2 | 55.2 | –
O=C1C(Cc2ccccc2)N(S(=O)(=O)c2cccc(O)c2)C(=O)C(Cc2ccccc2)N1S(=O)(=O)c1cccc(O)c1 (stereo unspecified) | 0.3 | 57.1 | 66.2 | –
O=C1C(Cc2ccccc2)N(S(=O)(=O)c2ccc([N+](=O)[O-])cc2)C(=O)C(Cc2ccccc2)N1S(=O)(=O)c1ccc([N+](=O)[O-])cc1 (stereo unspecified) | 0.4 | 42.9 | 54.8 | –
O=C1C(Cc2ccccc2)N(S(=O)(=O)c2ccc(Br)cc2)C(=O)C(Cc2ccccc2)N1S(=O)(=O)c1ccc(Br)cc1 (stereo unspecified) | 0.3 | 47.6 | 64.8 | –
O=C1CN(S(=O)(=O)c2cccc(Cl)c2)C(=O)CN1S(=O)(=O)c1cccc(Cl)c1 | 0.3 | 35.7 | 55.2 | –
Cc1ccc(S(=O)(=O)N2CC(=O)N(S(=O)(=O)c3ccc(C)cc3)CC2=O)cc1 | < 0.6 | 34.8 | 46.7 | –
Cc1ccc(S(=O)(=O)N2C(=O)C(c3ccccc3)N(S(=O)(=O)c3ccc(C)cc3)C(=O)C2c2ccccc2)cc1 (stereo unspecified) | < 0.4 | 38.1 | 56.2 | –
CCCS(=O)(=O)N1CC(=O)N(S(=O)(=O)CCC)CC1=O | – | 31.4 | 59.2 | –
O=C1C(c2ccccc2)N(S(=O)(=O)c2ccc(O)cc2)C(=O)C(c2ccccc2)N1S(=O)(=O)c1ccc(O)cc1 (stereo unspecified) | < 0.4 | 52.9 | 65.2 | –
Nc1ccc(S(=O)(=O)N2C(=O)C(c3ccccc3)N(S(=O)(=O)c3ccc(N)cc3)C(=O)C2c2ccccc2)cc1 (stereo unspecified) | < 0.5 | 56.2 | 66.7 | –
O=C1C(c2ccccc2)N(S(=O)(=O)c2ccc([N+](=O)[O-])cc2)C(=O)C(c2ccccc2)N1S(=O)(=O)c1ccc([N+](=O)[O-])cc1 (stereo unspecified) | 0.3 | 42.4 | 54.3 | –
O=C1O[C@H]([C@@H](O)CO)C(O)=C1O | – | 37.1 | 48.8 | –
O=C1CN(S(=O)(=O)c2ccc(Br)cc2)C(=O)CN1S(=O)(=O)c1ccc(Br)cc1 | 0.4 | 47.1 | 60.4 | –
O=C1C(c2ccccc2)N(S(=O)(=O)c2ccc(Br)cc2)C(=O)C(c2ccccc2)N1S(=O)(=O)c1ccc(Br)cc1 (stereo unspecified) | 0.2 | 45.7 | 63.8 | –
